Measurements as given in ChEMBL document CHEMBL1671751, “FRET-based sensors for the human M1-, M3-, and M5-acetylcholine receptors” (Bioorg Med Chem, 2011).

Tests used:
[1] = target: T1, Muscarinic acetylcholine receptor M5 (Homo sapiens) (UniProt P08912); assay: Agonist activity at M5-ACh receptor-FLASH/CFP expressed in HEK293 cells assessed as half-maximal activation time at 100 uM to 1 mM by FRET method; assay type: functional, cell-based
T1 sequence (whole entry): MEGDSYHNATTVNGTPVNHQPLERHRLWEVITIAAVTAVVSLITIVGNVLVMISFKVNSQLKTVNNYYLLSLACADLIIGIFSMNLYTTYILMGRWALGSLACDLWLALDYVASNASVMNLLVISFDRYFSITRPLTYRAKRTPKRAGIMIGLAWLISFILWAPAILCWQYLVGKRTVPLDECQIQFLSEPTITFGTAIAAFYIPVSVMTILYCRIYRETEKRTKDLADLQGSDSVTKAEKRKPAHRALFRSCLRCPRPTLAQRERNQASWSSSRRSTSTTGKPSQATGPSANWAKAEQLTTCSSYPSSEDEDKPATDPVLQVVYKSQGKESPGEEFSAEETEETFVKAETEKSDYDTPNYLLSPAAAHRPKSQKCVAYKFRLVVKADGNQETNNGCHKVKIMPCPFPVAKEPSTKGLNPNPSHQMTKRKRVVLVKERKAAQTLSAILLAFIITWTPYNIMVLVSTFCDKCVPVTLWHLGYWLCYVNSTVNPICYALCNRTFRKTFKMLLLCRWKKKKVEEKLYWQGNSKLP

[2] = target: T1, Muscarinic acetylcholine receptor M5 (Homo sapiens); assay: Agonist activity at M5-ACh receptor-FLASH/CFP expressed in HEK293 cells assessed as rate constant at 100 uM to 1 mM by FRET method; assay type: functional, cell-based
[3] = target: T2, Muscarinic acetylcholine receptor M5 (Homo sapiens, UniProt P08912); assay: Activation of M5-ACh receptor-FLASH/CFP expressed in HEK293 cells assessed as FRET signal; assay type: cell-based
T2 sequence (P08912 whole entry): T1 sequence (whole entry)

[4] = target: T3, Muscarinic acetylcholine receptor M1 (Homo sapiens, UniProt P11229); assay: Activation of M1-ACh receptor-FLASH/CFP expressed in HEK293 cells assessed as FRET signal; assay type: cell-based
T3 sequence (P11229 whole entry): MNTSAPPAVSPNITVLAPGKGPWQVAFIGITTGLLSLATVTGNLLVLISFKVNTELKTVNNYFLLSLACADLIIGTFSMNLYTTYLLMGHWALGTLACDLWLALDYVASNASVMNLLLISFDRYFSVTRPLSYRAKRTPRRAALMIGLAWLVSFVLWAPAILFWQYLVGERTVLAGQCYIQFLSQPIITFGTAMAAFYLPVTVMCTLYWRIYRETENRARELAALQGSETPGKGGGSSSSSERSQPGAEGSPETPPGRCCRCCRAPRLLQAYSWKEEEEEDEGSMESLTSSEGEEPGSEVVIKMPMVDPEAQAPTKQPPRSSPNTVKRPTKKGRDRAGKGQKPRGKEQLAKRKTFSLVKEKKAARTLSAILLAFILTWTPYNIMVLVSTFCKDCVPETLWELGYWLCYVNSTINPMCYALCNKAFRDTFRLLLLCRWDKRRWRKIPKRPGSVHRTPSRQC

[5] = target: Muscarinic acetylcholine receptor M3 (Homo sapiens, UniProt P20309); assay: Activation of M3-ACh receptor-FLASH/CFP expressed in HEK293 cells assessed as FRET signal; assay type: cell-based
Sequence of Muscarinic acetylcholine receptor M3 (P20309 whole entry): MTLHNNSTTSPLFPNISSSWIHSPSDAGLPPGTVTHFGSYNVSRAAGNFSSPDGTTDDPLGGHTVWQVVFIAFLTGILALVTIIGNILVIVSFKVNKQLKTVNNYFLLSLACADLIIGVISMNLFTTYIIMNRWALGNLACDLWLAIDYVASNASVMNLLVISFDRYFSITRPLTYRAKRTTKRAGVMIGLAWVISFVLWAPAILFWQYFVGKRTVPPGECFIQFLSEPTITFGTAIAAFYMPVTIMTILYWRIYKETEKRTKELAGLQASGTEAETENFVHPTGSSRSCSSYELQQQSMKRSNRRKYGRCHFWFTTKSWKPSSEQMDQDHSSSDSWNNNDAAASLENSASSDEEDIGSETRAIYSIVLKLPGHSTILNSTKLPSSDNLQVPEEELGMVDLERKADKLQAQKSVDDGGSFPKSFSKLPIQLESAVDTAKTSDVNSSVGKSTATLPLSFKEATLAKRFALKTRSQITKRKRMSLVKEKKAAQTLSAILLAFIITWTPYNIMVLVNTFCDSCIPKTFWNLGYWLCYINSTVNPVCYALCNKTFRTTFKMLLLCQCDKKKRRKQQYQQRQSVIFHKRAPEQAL

CC(=O)OCC[N+](C)(C)C
TIME [1]: 1.81e-05 h | Activity [2]: 15.4 s⁻¹

C[N+](C)(C)CC#CCN1CCCC1=O [OXOTREMORINE METHIODIDE]
TIME [1]: 2.89e-05 h | Activity [2]: 9.6 s⁻¹ | EC50 [3]: 2300 nM | EC50 [4]: 7400 nM | EC50 [5]: 1800 nM

C[N+](C)(C)CCOC(N)=O
TIME [1]: 1.89e-05 h | Activity [2]: 14.7 s⁻¹

C[C@@H]1O[C@H](C[N+](C)(C)C)C[C@H]1O [MUSCARINE CHLORIDE]
TIME [1]: 2e-05 h | Activity [2]: 13.9 s⁻¹ | EC50 [3]: 1300 nM | EC50 [5]: 1000 nM
